Assay results taken from patent US20090312349A1, “ANTI-INFLAMMATORY MEDICAMENTS” (priority 2004, published 2009).
Like-named read-outs stand apart in the source and are kept apart here.

Experiments:
Format in all cases: biochemical
[1] = target: T1, phospho p-38 alpha kinase (Homo sapiens, UniProt Q16539); assay: P-38 alpha kinase assay (spectrophotometric, pyruvate kinase/lactate dehydrogenase coupled)
T1 construct: purchased Panvera

[2] = target: phosphorylated p-38-alpha kinase (Homo sapiens, UniProt Q16539); assay: P-38 alpha kinase assay P1; details: Method P1; for IC50: 2 h pre-incubation before ATP
[3] = target: B-Raf(V599E) kinase (Homo sapiens, UniProt P15056, V600E); assay: B-Raf(V599E) kinase assay B1; details: for IC50: Method B1, construct 1; for inhibition at 1 µM: read-out: Results, % @ concentration μM
Description: The test compounds were incubated with the reaction mixture at 30° C. for 2 h. […] The reaction rate was calculated using the 1.5 h to 2.5 h time frame. […] IC50 values were calculated from a series of percent inhibition values determined at a range of inhibitor concentrations using software routines as implemented in the GraphPad Prism software package.

[4] = target: KDR kinase (Homo sapiens, UniProt P35968, DEL940-989/E990V); assay: KDR kinase assay K1; details: read-out: Results, % @ concentration μM, Method K1; @ 10 μM
Description: IC50 values were calculated from a series of percent inhibition values determined at a range of inhibitor concentrations using software routines as implemented in the GraphPad Prism software package.

[5] = Table 5, assay not named, read-out: uM

Chain of KDR kinase (P35968 with tags, fused parts or gaps DEL940-989/E990V): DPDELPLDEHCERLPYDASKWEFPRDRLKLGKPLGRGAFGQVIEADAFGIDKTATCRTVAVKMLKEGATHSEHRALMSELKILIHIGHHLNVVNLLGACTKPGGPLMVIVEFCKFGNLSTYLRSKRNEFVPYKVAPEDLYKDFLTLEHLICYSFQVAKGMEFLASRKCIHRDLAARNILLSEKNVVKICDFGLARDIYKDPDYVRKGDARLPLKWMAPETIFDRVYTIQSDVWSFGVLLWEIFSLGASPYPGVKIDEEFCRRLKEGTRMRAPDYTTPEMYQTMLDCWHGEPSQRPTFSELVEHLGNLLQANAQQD
Chain of phosphorylated p-38-alpha kinase (Q16539 1-360 isoform Q16539-2): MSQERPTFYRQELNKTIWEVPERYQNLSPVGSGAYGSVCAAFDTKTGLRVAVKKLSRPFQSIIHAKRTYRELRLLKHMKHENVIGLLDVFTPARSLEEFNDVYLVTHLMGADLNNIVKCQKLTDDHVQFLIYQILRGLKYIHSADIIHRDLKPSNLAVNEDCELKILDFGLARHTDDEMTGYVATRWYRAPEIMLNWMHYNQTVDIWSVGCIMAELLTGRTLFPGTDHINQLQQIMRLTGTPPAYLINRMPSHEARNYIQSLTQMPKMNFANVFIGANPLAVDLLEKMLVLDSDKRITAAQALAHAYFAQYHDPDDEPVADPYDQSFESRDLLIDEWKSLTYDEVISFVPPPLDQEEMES
T1 sequence (Q16539 whole entry): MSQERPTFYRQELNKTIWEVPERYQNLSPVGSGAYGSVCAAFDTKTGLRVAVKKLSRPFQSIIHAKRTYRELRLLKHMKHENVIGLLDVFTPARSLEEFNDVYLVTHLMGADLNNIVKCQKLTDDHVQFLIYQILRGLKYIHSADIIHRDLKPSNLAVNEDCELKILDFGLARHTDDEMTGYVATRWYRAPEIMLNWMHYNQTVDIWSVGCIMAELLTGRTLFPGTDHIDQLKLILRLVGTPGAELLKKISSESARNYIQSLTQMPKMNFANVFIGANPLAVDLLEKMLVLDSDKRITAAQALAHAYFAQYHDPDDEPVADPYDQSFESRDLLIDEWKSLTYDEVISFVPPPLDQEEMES
Chain of B-Raf(V599E) kinase (P15056 with tags, fused parts or gaps V600E): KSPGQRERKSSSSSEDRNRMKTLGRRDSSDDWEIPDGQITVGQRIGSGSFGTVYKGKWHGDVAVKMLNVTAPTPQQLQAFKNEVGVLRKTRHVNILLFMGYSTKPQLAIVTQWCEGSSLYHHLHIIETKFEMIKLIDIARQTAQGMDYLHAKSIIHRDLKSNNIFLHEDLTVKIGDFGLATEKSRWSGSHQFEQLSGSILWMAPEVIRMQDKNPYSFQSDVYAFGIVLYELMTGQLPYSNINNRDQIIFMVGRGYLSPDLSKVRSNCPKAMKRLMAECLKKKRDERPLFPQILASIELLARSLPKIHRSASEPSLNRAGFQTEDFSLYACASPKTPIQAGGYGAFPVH

SMILES | IC50 [1, 5] [µM] | IC50 [2] [µM] | inhibition at 10 µM [4] [%] | further results
CC(C)c1cc(NC(=O)Nc2ccc(Cl)cc2)n(-c2cccc(CCC(=O)O)c2)n1 [Example 429, 3-(3-(5-(3-(4-chlorophenyl)ureido)-3-isopropyl-1H-pyrazol-1-yl)phenyl)propanoic acid] | 1.07 |  |  | 
O=C(O)Cc1cccc(-n2nc(-c3ccccc3)cc2NC(=O)Nc2cccc(Cl)c2Cl)c1 [Example 430, 2-(3-(5-(3-(2,3-dichlorophenyl)ureido)-3-phenyl-1H-pyrazol-1-yl)phenyl)acetic acid] | 0.942 |  |  | 
O=C(O)Cc1cccc(-n2nc(-c3cccc(F)c3)cc2NC(=O)Nc2cccc(Cl)c2Cl)c1 [Example 432, 2-(3-(5-(3-(2,3-dichlorophenyl)ureido)-3-(3-fluorophenyl)-1H-pyrazol-1-yl)phenyl)acetic acid] |  | 0.011 |  | % @ concentration, uM ([1]; Table 5, @ 1 uM): 9%; % @ concentration, uM ([1]; Table 5, @ 10 uM): 24%
O=C(O)Cc1cccc(-n2nc(-c3cccs3)cc2NC(=O)Nc2cccc(Cl)c2Cl)c1 [Example 435, 2-(3-(5-(3-(2,3-dichlorophenyl)ureido)-3-(thiophen-2-yl)-1H-pyrazol-1-yl)phenyl)acetic acid] |  |  |  | IC50 [3]: 0.16 µM
O=C(O)Cc1ccc(-n2nc(-c3ccccc3)cc2NC(=O)Nc2cccc(Cl)c2Cl)cc1 [Example 438, 2-(4-(5-(3-(2,3-dichlorophenyl)ureido)-3-phenyl-1H-pyrazol-1-yl)phenyl)acetic acid] | 1.3 |  | 39 | 
O=C(O)Cc1ccc(-n2nc(-c3cccc(F)c3)cc2NC(=O)Nc2cccc(Cl)c2Cl)cc1 [Example 439, 2-(4-(5-(3-(2,3-dichlorophenyl)ureido)-3-(3-fluorophenyl)-1H-pyrazol-1-yl)phenyl)acetic acid] |  | 0.013 |  | 
O=C(O)Cc1ccc(-n2nc(-c3ccccc3F)cc2NC(=O)Nc2cccc(Cl)c2Cl)cc1 [Example 440, 2-(4-(5-(3-(2,3-dichlorophenyl)ureido)-3-(2-fluorophenyl)-1H-pyrazol-1-yl)phenyl)acetic acid] | 0.92 | 0.009 | 56 | 
O=C(O)Cc1ccc(-n2nc(-c3cccs3)cc2NC(=O)Nc2cccc(Cl)c2Cl)cc1 [Example 442, 2-(4-(5-(3-(2,3-dichlorophenyl)ureido)-3-(thiophen-2-yl)-1H-pyrazol-1-yl)phenyl)acetic acid] | 3.01 |  | 25 | inhibition at 1 µM [3]: 24%
O=C(O)Cc1ccc(-n2nc(-c3ccsc3)cc2NC(=O)Nc2cccc(Cl)c2Cl)cc1 [Example 444, 2-(4-(5-(3-(2,3-dichlorophenyl)ureido)-3-(thiophen-3-yl)-1H-pyrazol-1-yl)phenyl)acetic acid] | 5 | 0.006 |  | inhibition at 1 µM [3]: 42%
NC(=O)Cc1cccc(-n2nc(-c3ccccc3)cc2NC(=O)Nc2cccc(Cl)c2Cl)c1 [Example 447, 1-(1-(3-(2-amino-2-oxoethyl)phenyl)-3-phenyl-1H-pyrazol-5-yl)-3-(2,3-dichlorophenyl)urea] |  | 0.011 |  | 
NC(=O)Cc1cccc(-n2nc(-c3cccc(F)c3)cc2NC(=O)Nc2cccc(Cl)c2Cl)c1 [Example 449, 1-(1-(3-(2-amino-2-oxoethyl)phenyl)-3-(3-fluorophenyl)-1H-pyrazol-5-yl)-3-(2,3-dichlorophenyl)urea] |  | 0.022 | 33 | 
NC(=O)Cc1cccc(-n2nc(-c3ccccc3F)cc2NC(=O)Nc2cccc(Cl)c2Cl)c1 [Example 450, 1-(1-(3-(2-amino-2-oxoethyl)phenyl)-3-(2-fluorophenyl)-1H-pyrazol-5-yl)-3-(2,3-dichlorophenyl)urea] |  | 0.013 | 45 | % @ concentration, uM ([1]; Table 5, @ 1 uM): 89%; % @ concentration, uM ([1]; Table 5, @ 10 uM): 192%
NC(=O)Cc1cccc(-n2nc(-c3cccs3)cc2NC(=O)Nc2cccc(Cl)c2Cl)c1 [Example 451, 1-(1-(3-(2-amino-2-oxoethyl)phenyl)-3-(thiophen-2-yl)-1H-pyrazol-5-yl)-3-(2,3-dichlorophenyl)urea] |  | 0.008 |  | % @ concentration, uM ([1]; Table 5, @ 1 uM): 3% @1; IC50 [3]: 0.84 µM
CC(C(N)=O)c1cccc(-n2nc(-c3ccsc3)cc2NC(=O)Nc2cccc(Cl)c2Cl)c1 (centres unmarked) [Example 453, 1-(1-(3-(1-amino-1-oxopropan-2-yl)phenyl)-3-(thiophen-3-yl)-1H-pyrazol-5-yl)-3-(2,3-dichlorophenyl)urea] |  |  | 34 | 
O=C(Cc1cccc(-n2nc(-c3ccccc3)cc2NC(=O)Nc2cccc(Cl)c2Cl)c1)NCCO [Example 454, 1-(2,3-dichlorophenyl)-3-(1-(3-(2-(2-hydroxyethylamino)-2-oxoethyl)phenyl)-3-phenyl-1H-pyrazol-5-yl)urea] |  |  | 27 | 
O=C(Cc1cccc(-n2nc(-c3cccc(F)c3)cc2NC(=O)Nc2cccc(Cl)c2Cl)c1)NCCO [Example 455, 1-(2,3-dichlorophenyl)-3-(3-(3-fluorophenyl)-1-(3-(2-(2-hydroxyethylamino)-2-oxoethyl)phenyl)-1H-pyrazol-5-yl)urea] | 0.1 | 0.018 |  | inhibition at 1 µM [3]: 30%
O=C(Cc1cccc(-n2nc(-c3ccccc3F)cc2NC(=O)Nc2cccc(Cl)c2Cl)c1)NCCO [Example 456, 1-(2,3-dichlorophenyl)-3-(3-(2-fluorophenyl)-1-(3-(2-(2-hydroxyethylamino)-2-oxoethyl)phenyl)-1H-pyrazol-5-yl)urea] | 0.04 | 0.015 | 53 | 
O=C(Cc1cccc(-n2nc(-c3cccs3)cc2NC(=O)Nc2cccc(Cl)c2Cl)c1)NCCO [Example 457, 1-(2,3-dichlorophenyl)-3-(1-(3-(2-(2-hydroxyethylamino)-2-oxoethyl)phenyl)-3-(thiophen-2-yl)-1H-pyrazol-5-yl)urea] | 1.1 | 0.008 | 31 | 
O=C(Cc1cccc(-n2nc(-c3ccsc3)cc2NC(=O)Nc2cccc(Cl)c2Cl)c1)NCCO [Example 458, 1-(2,3-dichlorophenyl)-3-(1-(3-(2-(2-hydroxyethylamino)-2-oxoethyl)phenyl)-3-(thiophen-3-yl)-1H-pyrazol-5-yl)urea] | 1 | 0.007 |  | inhibition at 1 µM [3]: 28%
NC(=O)Cc1ccc(-n2nc(-c3cccs3)cc2NC(=O)Nc2cccc(Cl)c2Cl)cc1 [Example 468, 1-(1-(4-(2-amino-2-oxoethyl)phenyl)-3-(thiophen-2-yl)-1H-pyrazol-5-yl)-3-(2,3-dichlorophenyl)urea] | 0.0086 | 0.009 |  | IC50 [3]: 1.2 µM
O=C(Cc1ccc(-n2nc(-c3cccs3)cc2NC(=O)Nc2cccc(Cl)c2Cl)cc1)NCC(O)CO (centres unmarked) [Example 472, 1-(2,3-dichlorophenyl)-3-(1-(4-(2-(2,3-dihydroxypropylamino)-2-oxoethyl)phenyl)-3-(thiophen-2-yl)-1H-pyrazol-5-yl)urea] | 0.05 | 0.01 |  | 
O=C(Cc1ccc(-n2nc(-c3cccs3)cc2NC(=O)Nc2cccc(Cl)c2Cl)cc1)NC(CO)CO [Example 474, 1-(2,3-dichlorophenyl)-3-(1-(4-(2-(1,3-dihydroxypropan-2-ylamino)-2-oxoethyl)phenyl)-3-(thiophen-2-yl)-1H-pyrazol-5-yl)urea] | 0.38 | 0.013 |  | 
CN1CCN(C(=O)Cc2ccc(-n3nc(-c4ccccc4)cc3NC(=O)Nc3cccc(Cl)c3Cl)cc2)CC1 [Example 475, 1-(2,3-dichlorophenyl)-3-(1-(4-(2-(4-methylpiperazin-1-yl)-2-oxoethyl)phenyl)-3-phenyl-1H-pyrazol-5-yl)urea] | 0.01 |  |  | 
O=C(Nc1cccc(Cl)c1Cl)Nc1cc(-c2ccccc2F)nn1-c1ccc(CC(=O)N2CC[C@H](O)C2)cc1 [Example 479, 1-(2,3-dichlorophenyl)-3-(3-(2-fluorophenyl)-1-(4-(2-((S)-3-hydroxypyrrolidin-1-yl)-2-oxoethyl)phenyl)-1H-pyrazol-5-yl)urea] |  | 0.037 |  | 
O=C(Nc1cccc(Cl)c1Cl)Nc1cc(-c2ccccc2F)nn1-c1cccc(CO)c1 [Example 485, 1-(2,3-dichlorophenyl)-3-(3-(2-fluorophenyl)-1-(3-(hydroxymethyl)phenyl)-1H-pyrazol-5-yl)urea] | 0.05 |  | 79 | 
O=C(Nc1cccc(Cl)c1Cl)Nc1cc(-c2cccs2)nn1-c1cccc(CO)c1 [Example 486, 1-(2,3-dichlorophenyl)-3-(1-(3-(hydroxymethyl)phenyl)-3-(thiophen-2-yl)-1H-pyrazol-5-yl)urea] | 0.057 |  |  | 
CC(Cc1cccc(-n2nc(-c3cccs3)cc2NC(=O)Nc2cccc(Cl)c2Cl)c1)C(=O)O (centres unmarked) [Example 490, 3-(3-(5-(3-(2,3-dichlorophenyl)ureido)-3-(thiophen-2-yl)-1H-pyrazol-1-yl)phenyl)-2-methylpropanoic acid] | 0.34 |  |  | 
CC(C)(C)c1cc(NC(=O)Nc2cccc(-c3cnccn3)c2)n(-c2cccc(CC(N)=O)c2)n1 [Example 509, 1-(1-(3-(2-amino-2-oxoethyl)phenyl)-3-tert-butyl-1H-pyrazol-5-yl)-3-(3-(pyrazin-2-yl)phenyl)urea] | 0.5 |  |  | Results, % @ concentration μM ([2]; @ 1.0 μM): 57% @1.0; IC50 [3]: 0.28 µM
CC(C)(C)c1cc(NC(=O)Nc2cccc3ccccc23)n(-c2cccc(CO)c2)n1 [Example D, 1-{3-t-butyl-1-[3-(hydroxymethyl)phenyl]-1H-pyrazol-5-yl}-3-(naphthalen-1-yl)urea] |  |  |  | IC50 ([1]; Table 2, rates at […] to 2 h, read-out: IC50): 0.179 µM
